Measurements: PubChem BioAssay AID602458 (NMMLSC, 2012)
In brackets after ≈: the same amount, converted by molar mass. Activity calls are given as the source filed them.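 How the source made its calls: active means compounds whose saturated solubility in pH 7.4 saline buffer exceeds 10 µg/mL; inactive means the rest.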

Tested on: 1xPBS pH 7.4 kinetic solubility, UV absorbance
Assay: compound solubility in PBS buffer – biophysical, 1xPBS, pH 7.4, UV absorbance, ADME assay for GPR30 and estrogen receptor ligands, late-stage follow-up (AID 602458)
Conditions: hits give high values

| solubility | Compound |
| --- | --- |
| 0.14 µg/mL (inactive) (≈ 0.34 µM) | CC(=O)c1ccc2c(c1)[C@@H]1C=CC[C@@H]1[C@H](c1cc3c(cc1Br)OCO3)N2 |
| 0.28 µg/mL (inactive) (≈ 0.858 µM) | COc1cc([N+](=O)[O-])cc2c1NC(C1CC=CCC1)C1CC=CC21 (configuration not stated) |
